From ChEMBL document CHEMBL1140630, “Resisting degradation by human elastase: commonality of design features shared by 'canonical' plant and bacterial macrocyclic protease inhibitor scaffolds” (Bioorg Med Chem, 2007)
Bridge positions count the residues as written; N and C are the ends. Peptide text beside a SMILES is read from it.

Assays:
[1] = Inhibition of trypsin
Pancreatic elastase = Pancreatic elastase (Sus scrofa, UniProt P08419+P00772); assay: Inhibition of porcine pancreatic elastase; type: protein assay
[2] = Inhibition of subtilisin BPN
[3] = Inhibition of chymotrypsin

**Q.** With `CC(C)C[C@@H](NC(=O)[C@H](O)COS(=O)(=O)O)C(=O)N[C@@H]1C(=O)N[C@@H](CCCNC(=N)N)C(=O)N[C@H]2CC[C@@H](O)N(C2=O)[C@@H](CC(C)C)C(=O)N(C)[C@@H](Cc2ccc(O)cc2)C(=O)N[C@@H](C(C)C)C(=O)O[C@@H]1C` as the compound, how does the Ki [1] read?
**A.** 9 nM

**Q.** Which IC50 (Pancreatic elastase) does the source give for `C/C=C1\NC(=O)[C@H]2NC(=O)[C@@H](NC(=O)C(C)C)CCCNC(=O)Nc3cc(O)c(O)cc3C[C@@H](C(=O)N[C@@H](C(C)C)C(=O)O[C@H]2C)N(C)C(=O)[C@H](Cc2ccccc2)N2C(=O)[C@H](CC[C@H]2O)NC1=O` here?
**A.** 260 nM

**Q.** With `CSCC[C@@H]1NC(=O)[C@@H](NC(=O)[C@H](C)NC(=O)[C@@H](N)Cc2ccccc2)[C@@H](C)OC(=O)C[C@@H]2NC(=O)[C@H](COC(=O)C[C@@H](C(=O)N[C@@H](CCC(=O)O)C(=O)O)NC(=O)[C@H](CO)NC2=O)NC(=O)[C@@H]2CCCN2C(=O)[C@H](Cc2ccc(O)cc2)NC(=O)[C@H](CCCNC(=N)N)NC1=O` [MARINOSTATIN] (H-FATMRYPSDSDE-OH; ester 3-9, 8-11) as the compound, how does the Ki [2] read?
**A.** 1.5 nM

**Q.** And the Ki [3]?
**A.** 300 nM

**Q.** For `CCCC(=O)N[C@@H](C)C(=O)N[C@H](C(=O)N[C@@H]1C(=O)N[C@@H](CC(C)C)C(=O)N[C@@H]2CC[C@H](O)N(C2=O)[C@@H](C(C)O)C(=O)N[C@@H](Cc2ccc(O)c(Cl)c2)C(=O)N[C@@H](C(C)C)C(=O)O[C@H]1C)[C@@H](C)O` (stereo not given in full) [SCYPTOLIN A], which IC50 (Pancreatic elastase) is on record?
**A.** 160 nM
